Entries after “also recorded” stand apart in the source; their conditions may differ.
B1: T41L/N71S: double mutant of E. coli nitroreductase (NTR, nfsB) with enhanced kinetics of CB1954 activation (protein, UniProt P38489 1-217, looked up, variant T41L N71S)
Oxygen-insensitive NAD(P)H …: MDIISVALKRHSTKAFDASKKLTPEQAEQIKTLLQYSPSSLNSQPWHFIVASTEEGKARVAKSAAGNYVFSERKMLDASHVVVFCAKTAMDDVWLKLVVDQEDADGRFATPEAKAANDKGRKFFADMHRKDLHDDAEWMAKQVYLNVGNFLLGVAALGLDAVPIEGFDAAILDAEFGLKEKGYTSLVVVPVGHHSVEDFNATLPKSRLPQNITLTEV

How the values were obtained:
[1] = tested on: λH1 cells (H1.1 cells); experiment: MTT kill curve / pro-drug exposure of undifferentiated suicide-gene modified hESc; format: cell-based, human; conditions: for exposure time after which most λH1 cells die: 10 μM CB1954, 100 μM GCV (FIG. 8c); for ablation of H1.1 cells: after 7 days of exposure (FIG. 2); for sensitivity of undifferentiated modified clones to pro-drug: undifferentiated state
Excerpt: Clones of the hESc line H1 containing both constructs were selected using Puro (for plasmid L) and Neo (for plasmid F). We used electroporation of the linearized plasmids followed by Puro+Neo selection to achieve stable integration of both cassettes (λH1). Integration was confirmed by PCR, and positive clones were expanded and stocked in liquid N2. ˜25 double resistant clones were handpicked, expanded under antibiotic selection and frozen in liquid N2. A typical undifferentiated colony of one such clone, propagated in Puro+Neo to maintain selective pressure, was imaged. […] Aliquots were screened by genomic PCR to confirm the integration of both constructs (data not shown). qRT-PCR was performed to determine which clones had higher transgene (HSV-TK and NTR) expression. Clone A (H1.1 from now on) was selected for further testing based on the results of these assays. A kill curve using different dosages for GCV (0.01 to 1000 μM) and CB1954 (0.1 to 300 μM) was done for H1.1. Cell death was quantified by MTT assays on H1.1 and the parental wild-type H1 line. These assays helped us determine the optimal concentration of each pro-drug that leads to complete ablation of undifferentiated H1.1 cells while preserving the viability of the parental line within 7 days. Such concentration was in the range of 10-100 μM for GCV and 50-100 μM for CB1954, as previously reported in the literature for other cell types^26,54,55. The integration of these constructs had no detectable effects in terms of pluripotency marker expression (TRA-1-60, SSEA3, SSEA4, Oct3/4, Nanog) vs. the unmodified parental line H1, as determined by qRT-PCR, immunofluorescence and FACS analyses (data not shown).
A kill curve using different dosages for GCV (0.01 to 1000 μM) and CB1954 (0.1 to 300 μM) was done for λH1 and the parental H1 lines. Cell death was quantified by MTT [3-(4,5-dimethylthiazol-2-yl)-2,5-diphenyltetrazolium bromide] assays, which helped us determine the optimal concentration of each pro-drug that leads to ablation of undifferentiated λH1 cells while preserving the viability of the parental line within 7 days. Such concentration was in the range of 10-100 μM for both GCV and CB1954 (FIG. 8a), as previously reported in the literature for other cell types (21, 22). We used 10 μM for CB1954 and 100 μM of GCV for all subsequent experiments.
hESc (H1, National Stem Cell Registry #WA01, passage 35-45) were cultured as described in Schuldiner et al., PNAS USA 97: 11307-11312 (2000) using mTeSR™ (STEMCELL Technologies, Vancouver, Canada). […] MTT (3-(4,5-dimethylthiazol-2-yl)-2,5-Diphenyltetrazolium Bromide) is a reagent which is converted from a soluble tetrazolium to its insoluble formazan form via the activity of mitochondrial NAD(P)H-dependent oxidoreductase activity. This can be used to evaluate growth and proliferation of hESC colonies. MTT growth assays were performed for the sensitivity of transfected colonies to neomycin, puromycin, GCV and CB1954 at varying concentrations as previously described.

[2] = tested on: parental H1 hESc line; experiment: MTT kill curve / pro-drug exposure of parental unmodified hESc; format: cell-based, human; conditions: up to 7 days of exposure
Excerpt: Clones of the hESc line H1 containing both constructs were selected using Puro (for plasmid L) and Neo (for plasmid F). We used electroporation of the linearized plasmids followed by Puro+Neo selection to achieve stable integration of both cassettes (λH1). Integration was confirmed by PCR, and positive clones were expanded and stocked in liquid N2. ˜25 double resistant clones were handpicked, expanded under antibiotic selection and frozen in liquid N2. A typical undifferentiated colony of one such clone, propagated in Puro+Neo to maintain selective pressure, was imaged. […] Cell death was quantified by MTT assays on H1.1 and the parental wild-type H1 line. […] The integration of these constructs had no detectable effects in terms of pluripotency marker expression (TRA-1-60, SSEA3, SSEA4, Oct3/4, Nanog) vs. the unmodified parental line H1, as determined by qRT-PCR, immunofluorescence and FACS analyses (data not shown).
A kill curve using different dosages for GCV (0.01 to 1000 μM) and CB1954 (0.1 to 300 μM) was done for λH1 and the parental H1 lines. Cell death was quantified by MTT [3-(4,5-dimethylthiazol-2-yl)-2,5-diphenyltetrazolium bromide] assays, which helped us determine the optimal concentration of each pro-drug that leads to ablation of undifferentiated λH1 cells while preserving the viability of the parental line within 7 days. […]

[3] = tested on: teratomas from λH1 cells; experiment: Teratoma formation/elimination in immunodeficient mice xenotransplanted with undifferentiated λH1 cells; format: in vivo, NOD-SCID mice
Description: In order to test whether our suicide gene strategy works as intended in vivo, 5×10^6 undifferentiated λH1 cells were transplanted subcutaneously in the left posterior dorsal flank of 5-6-week-old immunodeficient NOD-SCID mice. These conditions are known to result in the formation of teratomas within 6-9 weeks. Groups were assigned as follows: • 1. Control (no treatment): 3 mice • 2. Peri-transplantation treatment with GCV (40 mg/kg of body weight; 5 days, starting the 7th day after transplantation): 4 mice • 3. Peri-transplantation treatment with CB1954 (20 mg/kg of body weight; 5 days, starting the 7th day after transplantation): 4 mice
As described in the literature, tumors could be manually palpated and measured using calipers in the control group starting at week 6-7. At week 10, one of the mice was euthanized for histopathological characterization of the teratoma. Starting on week 11, we treated the remaining two mice with a combination of GCV and CB1954 to test the hypothesis that pro-drug administration would eliminate already formed tumors.
Two mice in this group were euthanized at this point, showing no evidence of tumors (data not shown). […] This could be due to either the carry-over of residual hESc escapees that survived the initial GCV regimen, or to the development of GCV-resistant mutations in HSV-TK, as described in the literature. To test these two hypotheses, we re-treated these animals with ganciclovir in a 5-day drug/2-day rest regimen for the following two weeks. If the reason for the appearance of these late-onset tumors was resistance to the drug, we should continue to observe tumor growth despite the treatment; in contrast, if they were derived from surviving escapees, we might see tumor recession.
All animal experiments were conducted under the supervision of the University of Miami Institutional Animal Care and Use Committee (IACUC). NOD-SCID mice (5-6 weeks old; Jackson Laboratories, Bar Harbour, Me.) were housed in […] pathogen-free (SPF) conditions at the Division of Veterinary Resources (DVR). 5×10^6 hESc were resuspended in 50 μl mTeSR supplemented with […] of the ROCK inhibitor Y-27632A, and subsequently mixed with undiluted Matrigel of equal volume. The cell suspension was injected into the subcutis of the left posterior dorsal flank of the animal. Tumor growth was monitored with a caliper. Mice were euthanized after the observation/re-treatment period, as described in the Results section. Euthanized animals were subject to general observation. The injection site was inspected and tumor tissue, if present, was collected and processed for histopathological analysis. Lungs, liver spleen and pancreas were also harvested for histological analysis of potential tumor invasion.

[4] = tested on: tumor cell lines; conditions: Prof. Searle, personal communication; cited from earlier work

Molecule	exposure time after which most λH1 cells die [1] [days]	ablation of H1.1 cells [1] [%]	sensitivity of undifferentiated modified clones to pro-drug [1]	optimal concentration of pro-drug that leads to ablation of undifferentiated modified cells while preserving the viability of the parental line ([1]; within 7 days, MTT assay, kill curve GCV 0.01 to 1000 μM, CB1954 0.1 to 300 μM) [µM]	sensitivity of parental H1 line to pro-drug [2]	tumor detection after peri-transplantation treatment with GCV ([3]; 40 mg/kg, 5 days, starting the 7th day after transplantation, up to week 10)	tumors after GCV re-treatment ([3]; 5-day drug/2-day rest regimen, 2-week course, one tumor >250 mm^3 at initiation (FIG. 11b))	late-onset tumors in GCV-pretreated mice ([3]; two remaining mice, additional week after week 10)	tumor formation after peri-transplantation treatment with CB1954 ([3]; 20 mg/kg, 5 days, starting the 7th day after transplantation, 11 weeks into the follow-up)	fold lower CB1954 concentration to which cells are sensitized vs the native enzyme [4] [fold]
Nc1nc(O)c2ncn(COC(CO)CO)c2n1 [GCV, ganciclovir]	7	100	sensitive	10 to 100	largely insensitive; also recorded: resistant; also recorded: remain largely unscathed	No tumors could be detected	both tumors virtually disappeared	the tumors grew significantly in both mice	–	–
NC(=O)c1cc(N2CC2)c([N+](=O)[O-])cc1[N+](=O)[O-] [CB1954, 5-(aziridin-1-yl)-2,4-dinitrobenzamide]	3	100	sensitive	–	largely insensitive; also recorded: resistant; also recorded: remain largely unscathed	–	–	–	none of the animals in the third group (treated in the peri-transplantation period with CB1954) showed signs of tumor formation	–
B1	–	–	–	–	–	–	–	–	–	~15

— patent US11723987B2, “Double suicide gene vector systems for stem cells” (UNIVERSITY OF MIAMI, priority 2016, dated 2023)
